Data set [1] has as its system MERS-CoV. Kind of data set: microbe, parasite or virus in culture. The format is cell-based. The settings on record: for EC50: Middle East respiratory syndrome-related coronavirus, Vero, 24 h.
Data set [2] can be described thus: in vitro. The settings on record: African green monkey.
Data set [3] concerns vero cells (ATCC CCL-81).

SMILES strings stand for the structures. Bounds are passed on as bounds.

As to `Cc1cccc(C)c1OCC(=O)N[C@@H](Cc1ccccc1)[C@@H](O)C[C@H](Cc1ccccc1)NC(=O)[C@H](Cc1ccccc1)N1CCCNC1=O` [Compound 1, (S)-N-((2S,4S,5S)-5-(2-(2,6-dimethylphenoxy)acetamido)-4-hydroxy-1,6-diphenylhexane-2-yl)-2-(2-oxotetrahydropyrimidin-1(2H)-yl)-3-phenylpropanamide], in data set [1], the SI was found to be 21.74 and it took 2.03 µM to reach a half-maximal effect (EC50). Besides, the CC50 in data set [2] was over 50 µM. In data set [3], the “toxicity to host cells” value is given as “minimal toxicity”.

On to `Cc1cccc(C)c1OCC(=O)N[C@@H](Cc1ccccc1)[C@@H](O)C[C@H](Cc1ccccc1)NC(=O)[C@](C)(C(C)C)N1CCCNC1=O` [Compound 2, (S)-N-((2S,4S,5S)-5-(2-(2,6-dimethylphenoxy)acetamido)-4-hydroxy-1,6-diphenylhexane-2-yl)-2,3-dimethyl-2-(2-oxotetrahydropyrimidin-1(2H)-yl)butanamide], for which the CC50 in data set [2] is over 50 µM. The “toxicity to host cells” value in data set [3] is listed as “minimal toxicity”.

For the compound `Cc1cccc(C)c1OCC(=O)N[C@@H](Cc1ccccc1)[C@@H](O)C[C@H](Cc1ccccc1)NC(=O)[C@@](C)(C(C)C)N1CCCNC1=O` [Compound 3, (R)-N-((2S,4S,5S)-5-(2-(2,6-dimethylphenoxy)acetamido)-4-hydroxy-1,6-diphenylhexane-2-yl)-2,3-dimethyl-2-(2-oxotetrahydropyrimidin-1(2H)-yl)butanamide], the CC50 in data set [2] is over 50 µM. The “toxicity to host cells” value in data set [3] is reported as “minimal toxicity”.

On to `Cc1cccc(C)c1OCC(=O)N[C@@H](Cc1ccccc1)[C@@H](O)C[C@H](Cc1ccccc1)NC(=O)C1(N2CCCNC2=O)CCCC1` [Compound 4, N-((2S,4S,5S)-5-(2-(2,6-dimethylphenoxy)acetamido)-4-hydroxy-1,6-diphenylhexan-2-yl)-1-(2-oxotetrahydropyrimidine-1 (2H)-yl) cyclopentanecarboxamide], for which, in data set [1], the SI is given as 6.53 and the EC50 is 7.66 µM. Further, in data set [2], the CC50 was over 50 µM. The “toxicity to host cells” value in data set [3] is given as “minimal toxicity”.

In data set [1], `Cc1cccc(C[C@@H](C(=O)N[C@@H](Cc2ccccc2)C[C@H](O)[C@H](Cc2ccccc2)NC(=O)COc2c(C)cccc2C)N2CCCNC2=O)c1` [Compound 5, (S)-N-((2S,4S,5S)-5-(2-(2,6-dimethylphenoxy)acetamido)-4-hydroxy-1,6-diphenylhexane-2-yl)-2-(2-oxotetrahydropyrimidin-1(2H)-yl)-3-(m-tolyl)propanamide] gave an SI of 17.91 and an EC50 of 2.79 µM. Besides, the CC50 in data set [2] was over 50 µM. For the same compound, in data set [3], the “toxicity to host cells” value is reported as “minimal toxicity”.

As to `Cc1cccc(C)c1OCC(=O)N[C@@H](Cc1ccccc1)[C@@H](O)C[C@H](Cc1ccccc1)NC(=O)[C@H](Cc1ccc(F)cc1)N1CCCNC1=O` [Compound 7, (S)-N-((2S,4S,5S)-5-(2-(2,6-dimethylphenoxy)acetamido)-4-hydroxy-1,6-diphenylhexane-2-yl)-3-(4-fluorophenyl)-2-(2-oxotetrahydropyrimidin-1(2H)-yl)propanamide], in data set [1], the SI amounted to 23.96 and the EC50 turned out to be 2.09 µM. In addition, the CC50 in data set [2] is over 50 µM. Moreover, the “toxicity to host cells” value in data set [3] was “minimal toxicity”.

For the compound `Cc1cccc(C)c1OCC(=O)N[C@@H](Cc1ccccc1)[C@@H](O)C[C@H](Cc1ccccc1)NC(=O)[C@H](Cc1ccc(C(F)(F)F)cc1)N1CCCNC1=O` [Compound 8, (S)-N-((2S,4S,5S)-5-(2-(2,6-dimethylphenoxy)acetamido)-4-hydroxy-1,6-diphenylhexane-2-yl)-2-(2-oxotetrahydropyrimidin-1(2H)-yl)-3-(4-(trifluoromethyl)phenyl)propanamide], in data set [1], the SI came to 40.88 and a half-maximal effect (EC50) was put at 1.22 µM. The compound also displayed a CC50 in data set [2] of over 50 µM. In addition, the “toxicity to host cells” value in data set [3] is reported as “minimal toxicity”.

In data set [1], `Cc1cccc(C)c1OCC(=O)N[C@@H](Cc1ccccc1)[C@@H](O)C[C@H](Cc1ccccc1)NC(=O)[C@H](Cc1ccc(C#N)cc1)N1CCCNC1=O` [Compound 9, (S)-3-(4-cyanophenyl)-N-((2S,4S,5S)-5-(2-(2,6-dimethylphenoxy)acetamido)-4-hydroxy-1,6-diphenylhexan-2-yl)-2-(2-oxotetrahydropyrimidin-1(2H)-yl)propanamide] displayed an SI of 19.33 and an EC50 of 2.59 µM. The same compound yielded a CC50 in data set [2] of over 50 µM. For the same compound, the “toxicity to host cells” value in data set [3] was “minimal toxicity”.

In data set [1], `Cc1cccc(C)c1OCC(=O)N[C@@H](Cc1ccccc1)[C@@H](O)C[C@H](Cc1ccccc1)NC(=O)[C@H](Cc1cccs1)N1CCCNC1=O` [Compound 10, (S)-N-((2S,4S,5S)-5-(2-(2,6-dimethylphenoxy)acetamido)-4-hydroxy-1,6-diphenylhexane-2-yl)-2-(2-oxotetrahydropyrimidin-1(2H)-yl)-3-(thiophen-2-yl)propenamide] showed an SI of 15.06 and an EC50 of 3.32 µM. Besides, the CC50 in data set [2] was over 50 µM. For the same compound, the “toxicity to host cells” value in data set [3] is recorded as “minimal toxicity”.

Consider `Cc1cccc(C)c1OCC(=O)N[C@@H](Cc1ccccc1)[C@@H](O)C[C@H](Cc1ccccc1)NC(=O)[C@H](C(C)C)N1CCCNC1=O` [Positive control, Lopinavir, reference compound], for which, in data set [1], the SI was 4.78 and a half-maximal effect (EC50) was put at 10.5 µM. This compound also displayed a CC50 in data set [2] of over 50 µM.

In general, EC50 refers to the concentration giving half of the maximal effect.
